# Patent publication US20180044343A1, “BICYCLIC IMIDAZOLO DERIVATIVE” (Sumitomo Dainippon Pharma Co., Ltd., priority 2015, published 2018)
# Columns and labels:
# PDE1A3 [1] = biological target: T1, PDE1A3 (Homo sapiens, UniProt P54750); test: In vitro HTRF PDE1 inhibition assay (PDE1A3); format: biochemical; conditions: PDE1A3, 100 nM cyclic GMP
# Excerpt: (§1) An exemplary procedure for the in vitro Homogenous Time Resolved Fluorescence assay, which can be used to determine the inhibitory action of compounds of the present invention toward PDE1 or its isoforms, follows.
# (§2) The HTRF PDE1 assay utilized the HTRF (Homogenous Time Resolved Fluorescence) technology, which is based on the competition between unlabeled cyclic nucleotide and cyclic nucleotide labeled with XL665 for the binding to cyclic nucleotide-specific antibody labeled with cryptate. The HTRF signal is thus inversely proportional to the concentration of cyclic nucleotide being measured. Since phosphodiesterases break down cyclic nucleotides, the HTRF signal was used to determine PDE activity.
# (§3) The Cisbio cGMP HTRF assay kit (Cat no: 62GM2PEC) was utilized. Cyclic GMP was diluted to 200 nM in HTRF assay buffer (1 mM CaCl2, 10 mM MgCl2, 10 mM Tris-HCl, 0.1% BSA, pH 7.4). 10 μl of compound or DMSO was diluted in 200 nM cyclic GMP solution and added to wells of a 96 well white plate to give 100 nM cyclic GMP in 1% DMSO final concentration. PDE (1A3, 1B or 1C) was diluted to 2× working concentration in HTRF assay buffer with 2 μg/ml Calmodulin, and 10 μl was added to initiate the reaction. The plate was then incubated for 45 minutes at 27° C. d2-Labelled cyclic GMP and anti-cGMP cryptate were diluted in 50 mM phosphate buffer, 0.8 M KF, 1% Triton X100, 0.2% BSA, pH 7.0. Following incubation 10 μl d2-cGMP, then 10 μl anti cGMP cryptate were added to each well and the plate was incubated for 60 minutes at room temperature. The plate was then read on Perkin Elmer EnVision at 2 different FRET readings ex/em 340 nm/665 nm and 340 nm/615 nm.
# (§4) Compounds having an IC50 of <1 μM are denoted as +++. Compounds having an IC50 of 1-10 μM are denoted as ++. Compounds having an IC50 of 10-100 μM are denoted as +.
# [2] = system: cognitive dysfunction in PCP-treated rats; test: Novel object recognition test in rats repeatedly treated with phencyclidine (PCP); format: in vivo; conditions: rats given PCP 3 mg/kg i.p. twice a day for 10 days; compound 1 or 3 mg/kg orally 60 minutes before test; compared to PCP+vehicle group
# Protocol: Since an N-Methyl-D-aspartate receptor antagonist phencyclidine (PCP) has been known to cause schizophrenia-like symptoms including cognitive dysfunction in humans, PCP-treated animals have been widely used as a schizophrenic animal model. Using rats to which PCP was repeatedly administered as a schizophrenic animal model, the improvement in cognitive dysfunction with the compounds of the invention was evaluated in the novel object recognition test. Rats were habituated to the test environment which is a box (50 cm×50 cm×35 cm) with no object inside for 1 hour per day for 3 days. On the test day, rats were again put into the test box with no object inside to habituate themselves for three minutes. The rats were then put into the test box with two identical objects inside and were made to explore inside for three minutes for a training trial. After one minute, they were put into the test box with one of the objects (i.e., the familiar object) that was the same as used in the training trial and another object (i.e., a novel object) inside and were made to explore inside for three minutes for a test trial. Cognitive function was evaluated on the basis of preference for the novel object in the test trial utilizing rats' habit of exploring a novel object longer than a familiar object. Discrimination Index was calculated from the following equation as an index for preference of a novel object.
# Discrimination Index=(Time to explore novel object−Time to explore familiar object)/(Time to explore novel object+Time to explore familiar object)
# PDE1A3 [3] = biological target: T1, PDE1A3; test: In vitro SPA PDE1 inhibition assay (PDE1A3); format: biochemical; conditions: PDE1A3, [3H]-cGMP 100 nM
# Protocol: (§5) The commercially available Scintillation Proximity Assay (SPA) system (Perkinelmer) was used for PDE1 inhibition assays. SPA Yttrium Silicate beads preferentially binds to non-cyclic GMP compared to cyclic GMP (cGMP) in the presence of zinc sulphate, which enables to measure the amount of enzyme reaction product ([^3H]-GMP) by scintillation counting.
# (§6) For PDE1 inhibition assay, 10 μl of the test compounds in 5% dimethyl sulfoxide diluted in SPA assay buffer (1 mM CaCl2, 10 mM MgSO4, 10 mM Tris-HCl, pH 7.4) were placed in a 96-well white microtiter plate, and 20 μl of [^3H]-cGMP solution (100 nM final concentration, Perkinelmer) in SPA assay buffer was added. Assays were initiated by adding 20 μl of PDE (1A3, 1B or 1C) enzyme solution including calmodulin (final concentration 1 μg/ml). After 30 min incubation at 27° C., the reaction was stopped by the addition of 50 μl of a suspension of 10 mg/ml SPA beads in 18 mM ZnSO4. The microtiter plates were settled for 60 min, and then were measured in a TopCount NXT scintillation counter (PerkinElmer). IC50 values were determined from sigmoidal curves by plotting the percentage of PDE activity versus log compound concentration. IC50 was defined as the concentration of the test compounds required to inhibit the cyclic nucleotide hydrolyzing activities of tested PDEs by 50%.
# [4] = Test for drug transportation to brain in rats; format: in vivo; conditions: rat; SD rats, oral, one hour after administration; non-binding drug concentration ratio between brain and plasma
# Excerpt: Test for Drug Transportation to Brain in Rats
# This test can be used to assess transportation of the compounds of the present invention to the brain. Each compound of the invention was orally administered to 7 week-old SD rats with a 0.5% suspension in methyl cellulose, and each plasma and brain were collected one hour after administration to measure the concentration of each compound in the plasma and the brain with an LC-MS.
# Each protein binding ratio of the compounds in the plasma and the brain was measured by the equilibrium dialysis method.
# The obtained concentrations and protein binding ratios of the compounds in the plasma and the brain can be applied to the following equation to calculate Kp, uu, brain (i.e., non-binding drug concentration ratio between brain and plasma).
# Kp, uu, brain=[Compound concentration in brain×(100−Protein binding ratio in brain (%))/100]/[Compound concentration in plasma×(100−Protein binding ratio in plasma (%))/100]
# PDE1B [5] = biological target: T2, PDE1B (Homo sapiens, UniProt Q01064); test: In vitro SPA PDE1 inhibition assay (PDE1B); format: biochemical; conditions: [3H]-cGMP 100 nM
# Protocol: as §5, §6
# [6] = Evaluation of bioavailability, PK test in rats; format: in vivo; conditions: rat; 7 week-old SD rats, intravenous vs oral administration, plasma LC-MS
# Protocol: This test can be used to assess pharmacokinetics of the compounds of the present invention. Each compound of the invention was administered to 7 week-old SD rats intravenously with a solution in saline: 0.1N HCl=9:1 or orally with a 0.5% suspension in methyl cellulose, and each blood sample was collected at an appropriate interval as follows:
# 5, 15, and 30 minutes, and 1, 2, 4, 6, and 24 hours after intravenous administration
# 15 and 30 minutes, and 1, 2, 4, 6, and 24 hours after oral administration
# The plasma was obtained from each blood, and the concentration of each compound in the plasma was measured with an LC-MS to calculate each pharmacokinetic parameter based on the concentration change.
# PDE1B [7] = biological target: T2, PDE1B; test: In vitro HTRF PDE1 inhibition assay (PDE1B); format: biochemical; conditions: in vitro PDE1B HTRF Assay; read-out: IC50
# PDE1C [8] = biological target: T3, PDE1C (Homo sapiens, UniProt Q14123); test: In vitro SPA PDE1 inhibition assay (PDE1C); format: biochemical; conditions: [3H]-cGMP 100 nM
# Protocol: as §5, §6
# PDE1C [9] = biological target: T3, PDE1C; test: In vitro HTRF PDE1 inhibition assay (PDE1C); format: biochemical; conditions: 100 nM cyclic GMP
# Excerpt: as §1, §2, §3, §4
# T2 sequence (Q01064 whole entry): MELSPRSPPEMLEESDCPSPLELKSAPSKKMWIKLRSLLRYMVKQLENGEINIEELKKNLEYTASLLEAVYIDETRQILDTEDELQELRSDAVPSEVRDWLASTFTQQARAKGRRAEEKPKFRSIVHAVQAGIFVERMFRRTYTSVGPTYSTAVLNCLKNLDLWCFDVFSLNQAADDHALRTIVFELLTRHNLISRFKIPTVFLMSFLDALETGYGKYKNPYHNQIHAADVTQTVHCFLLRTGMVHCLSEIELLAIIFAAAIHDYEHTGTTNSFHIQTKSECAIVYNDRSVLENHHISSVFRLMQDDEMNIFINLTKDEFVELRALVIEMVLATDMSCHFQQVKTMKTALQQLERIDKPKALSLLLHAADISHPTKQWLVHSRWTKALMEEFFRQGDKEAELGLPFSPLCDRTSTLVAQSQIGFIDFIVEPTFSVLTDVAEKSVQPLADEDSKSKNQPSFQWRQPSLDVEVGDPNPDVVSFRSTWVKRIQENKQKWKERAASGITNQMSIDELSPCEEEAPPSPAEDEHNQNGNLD
Compound,IC50 (PDE1A3 [1]),Discrimination Index in novel object recognition test [2],IC50 (PDE1A3 [3]),Kp uu at 1 h [4],IC50 (PDE1B [5]),bioavailability [6],IC50 (PDE1B [7]),IC50 (PDE1C [8]),IC50 (PDE1C [9])
"CC(C)c1ncc2c(=O)n(C)c(NCc3ccc(Cl)cn3)nn12 [Example 149, 2-{[(5-chloropyridin-2-yl)methyl]amino}-3-methyl-7-(propan-2-yl)imidazo[5,1-f][1,2,4]triazin-4(3H)-one]",< 1 µM,significant increase,0.144 µM,0.3,0.051 µM,55.6%,< 1000 nM,0.425 µM,< 1 µM
"Cn1c(OC[C@H]2CC[C@H](C(F)(F)F)CC2)nn2c(C3CCOCC3)ncc2c1=O [Example 245, 3-methyl-7-(tetrahydro-2H-pyran-4-yl)-2-{[trans-4-(trifluoromethyl)cyclohexyl]methoxy}-imidazo[5,1-][1,2,4]triazin-4(3H)-one]",< 1 µM,significant increase,0.113 µM,0.72,0.036 µM,30.4%,< 1000 nM,0.547 µM,< 1 µM
"CCOC[C@H]1CC[C@H](COc2nn3c(C4CCOCC4)ncc3c(=O)n2C)CC1 [Example 288, 2-{[trans-4-(ethoxymethyl)cyclohexyl]methoxy}-3-methyl-7-(tetrahydro-2H-pyran-4-yl)-imidazo[5,1-][1,2,4]triazin-4(3H)-one]",< 1 µM,significant increase,0.08 µM,0.61,0.023 µM,54.5%,< 1000 nM,0.276 µM,< 1 µM
